Measured values published in PubChem BioAssay (NCI).
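In this assay, cells in 96-well plates receive the compound at five concentrations for 48 hours. Endpoints are linearly interpolated between the surrounding concentrations. The concentration for 50% growth inhibition is given as GI50. At the TGI there is no net growth.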

How the values were obtained:
Assay in all cases: inhibition of tumour cell growth, NCI panel, 48 h
TK-10 renal = test system: TK-10 renal
A498 renal = test system: A498 renal
SK-OV-3 ovarian = test system: SK-OV-3 ovarian
A549 NSCLC = test system: A549 NSCLC
M14 melanoma = test system: M14 melanoma
RXF 393 renal = test system: RXF 393 renal
SF-539 CNS = test system: SF-539 CNS
HL-60(TB) leukemia = test system: HL-60(TB) leukemia
SK-MEL-28 melanoma = test system: SK-MEL-28 melanoma
PC-3 prostate = test system: PC-3 prostate
SNB-75 CNS = test system: SNB-75 CNS
UACC-62 melanoma = test system: UACC-62 melanoma
NCI/ADR-RES ovarian = test system: NCI/ADR-RES ovarian
BT-549 breast = test system: BT-549 breast
MDA-MB-435 = test system: MDA-MB-435
SF-295 CNS = test system: SF-295 CNS
HCT-116 colon = test system: HCT-116 colon
SN12C renal = test system: SN12C renal
HCC-2998 colon = test system: HCC-2998 colon
ACHN renal = test system: ACHN renal
NCI-H23 lung = test system: NCI-H23 lung
OVCAR-3 ovarian = test system: OVCAR-3 ovarian
SK-MEL-2 melanoma = test system: SK-MEL-2 melanoma
LOX IMVI melanoma = test system: LOX IMVI melanoma
EKVX NSCLC = test system: EKVX NSCLC
HS 578T breast = test system: HS 578T breast
T-47D breast = test system: T-47D breast
SK-MEL-5 melanoma = test system: SK-MEL-5 melanoma
NCI-H226 lung = test system: NCI-H226 lung
U251 CNS = test system: U251 CNS
SR leukemia = test system: SR leukemia
MALME-3M melanoma = test system: MALME-3M melanoma
SW-620 colon = test system: SW-620 colon
RPMI-8226 leukemia = test system: RPMI-8226 leukemia
CCRF-CEM leukemia = test system: CCRF-CEM leukemia
UACC-257 melanoma = test system: UACC-257 melanoma
DU-145 prostate = test system: DU-145 prostate
KM12 colon = test system: KM12 colon
OVCAR-8 ovarian = test system: OVCAR-8 ovarian
OVCAR-4 ovarian = test system: OVCAR-4 ovarian
MCF7 breast = test system: MCF7 breast
OVCAR-5 ovarian = test system: OVCAR-5 ovarian
HOP-92 NSCLC = test system: HOP-92 NSCLC
UO-31 renal = test system: UO-31 renal
K-562 leukemia = test system: K-562 leukemia
MDA-MB-231 breast = test system: MDA-MB-231 breast
HCT-15 colon = test system: HCT-15 colon
786-0 renal = test system: 786-0 renal
IGROV1 ovarian = test system: IGROV1 ovarian
COLO 205 colon = test system: COLO 205 colon
SF-268 CNS = test system: SF-268 CNS
HT29 colon = test system: HT29 colon
NCI-H460 lung = test system: NCI-H460 lung
SNB-19 CNS = test system: SNB-19 CNS
CAKI-1 renal = test system: CAKI-1 renal
MOLT-4 leukemia = test system: MOLT-4 leukemia
HOP-62 NSCLC = test system: HOP-62 NSCLC
NCI-H522 lung = test system: NCI-H522 lung

SMILES: NC(N)=Nc1ccc(Oc2cccc(Nc3cccc(C(F)(F)F)c3)c2)cn1
- GI50 (TK-10 renal): 1.85 µM
- TGI (TK-10 renal): 3.63 µM
- GI50 (A498 renal): 1.51 µM
- TGI (A498 renal): 3.02 µM
- GI50 (SK-OV-3 ovarian): 2.08 µM
- TGI (SK-OV-3 ovarian): 4.27 µM
- GI50 (A549 NSCLC): 1.88 µM
- TGI (A549 NSCLC): 4.42 µM
- GI50 (M14 melanoma): 1.76 µM
- TGI (M14 melanoma): 3.33 µM
- GI50 (RXF 393 renal): 1.76 µM
- TGI (RXF 393 renal): 3.39 µM
- GI50 (SF-539 CNS): 1.72 µM
- TGI (SF-539 CNS): 3.22 µM
- GI50 (HL-60(TB) leukemia): 2.04 µM
- TGI (HL-60(TB) leukemia): 4.36 µM
- GI50 (SK-MEL-28 melanoma): 1.7 µM
- TGI (SK-MEL-28 melanoma): 3.16 µM
- GI50 (PC-3 prostate): 1.47 µM
- TGI (PC-3 prostate): 2.88 µM
- GI50 (SNB-75 CNS): 1.37 µM
- TGI (SNB-75 CNS): 2.74 µM
- GI50 (UACC-62 melanoma): 1.79 µM
- TGI (UACC-62 melanoma): 3.4 µM
- GI50 (NCI/ADR-RES ovarian): 4.85 µM
- TGI (NCI/ADR-RES ovarian): 37.6 µM
- GI50 (BT-549 breast): 1.76 µM
- TGI (BT-549 breast): 3.3 µM

SMILES: CN1CCN(c2ccc(Nc3nc(NCCCNS(=O)(=O)c4ccc(F)cc4)c4sccc4n3)cc2)CC1
- GI50 (TK-10 renal): 24.6 µM
- TGI (TK-10 renal): 61.5 µM
- GI50 (MDA-MB-435): 14.3 µM
- TGI (MDA-MB-435): 27.4 µM
- GI50 (A498 renal): 16.1 µM
- TGI (A498 renal): 32.4 µM
- GI50 (SF-295 CNS): 13.3 µM
- TGI (SF-295 CNS): 26.6 µM
- GI50 (HCT-116 colon): 5.35 µM
- TGI (HCT-116 colon): 28.5 µM
- GI50 (SN12C renal): 13.6 µM
- TGI (SN12C renal): 37.2 µM
- GI50 (SK-OV-3 ovarian): 27 µM
- TGI (SK-OV-3 ovarian): 78.4 µM
- GI50 (HCC-2998 colon): 14.9 µM
- TGI (HCC-2998 colon): 30.8 µM
- GI50 (A549 NSCLC): 21.2 µM
- TGI (A549 NSCLC): 97.9 µM
- GI50 (ACHN renal): 17.1 µM
- TGI (ACHN renal): 40.2 µM
- GI50 (M14 melanoma): 2.47 µM
- TGI (M14 melanoma): 7.33 µM
- GI50 (NCI-H23 lung): 14.8 µM
- TGI (NCI-H23 lung): 30.3 µM
- GI50 (OVCAR-3 ovarian): 17.8 µM
- TGI (OVCAR-3 ovarian): 55.7 µM
- GI50 (SK-MEL-2 melanoma): 15.5 µM
- TGI (SK-MEL-2 melanoma): 29.7 µM
- GI50 (LOX IMVI melanoma): 12 µM
- TGI (LOX IMVI melanoma): 25.6 µM
- GI50 (SF-539 CNS): 12 µM
- TGI (SF-539 CNS): 24.4 µM
- GI50 (EKVX NSCLC): 21 µM
- TGI (EKVX NSCLC): 73.8 µM
- GI50 (HS 578T breast): 4.92 µM
- TGI (HS 578T breast): 25.4 µM
- GI50 (T-47D breast): 15 µM
- TGI (T-47D breast): 40.4 µM
- GI50 (SK-MEL-5 melanoma): 15.8 µM
- TGI (SK-MEL-5 melanoma): 29.2 µM
- GI50 (NCI-H226 lung): 10.8 µM
- TGI (NCI-H226 lung): 23.1 µM
- GI50 (U251 CNS): 5.65 µM
- TGI (U251 CNS): 28.6 µM
- GI50 (SR leukemia): 2.83 µM
- TGI (SR leukemia): > 100 µM
- GI50 (HL-60(TB) leukemia): 19.8 µM
- TGI (HL-60(TB) leukemia): 45.4 µM
- GI50 (MALME-3M melanoma): 12.1 µM
- TGI (MALME-3M melanoma): 24.4 µM
- GI50 (SW-620 colon): 15.2 µM
- TGI (SW-620 colon): 30.1 µM
- GI50 (RPMI-8226 leukemia): 5.24 µM
- TGI (RPMI-8226 leukemia): 37.6 µM
- GI50 (SK-MEL-28 melanoma): 13.1 µM
- TGI (SK-MEL-28 melanoma): 25.8 µM
- GI50 (CCRF-CEM leukemia): 22.2 µM
- TGI (CCRF-CEM leukemia): > 100 µM
- GI50 (UACC-257 melanoma): 15.1 µM
- TGI (UACC-257 melanoma): 30.3 µM
- GI50 (PC-3 prostate): 13.4 µM
- TGI (PC-3 prostate): 46.1 µM
- GI50 (DU-145 prostate): 17.4 µM
- TGI (DU-145 prostate): 43 µM
- GI50 (KM12 colon): 16.9 µM
- TGI (KM12 colon): 56.4 µM
- GI50 (OVCAR-8 ovarian): 14.9 µM
- TGI (OVCAR-8 ovarian): 42.8 µM
- GI50 (OVCAR-4 ovarian): 10.2 µM
- TGI (OVCAR-4 ovarian): 38.8 µM
- GI50 (MCF7 breast): 7.39 µM
- TGI (MCF7 breast): 20.2 µM
- GI50 (OVCAR-5 ovarian): 18.1 µM
- TGI (OVCAR-5 ovarian): 55.9 µM
- GI50 (HOP-92 NSCLC): 4.72 µM
- TGI (HOP-92 NSCLC): 26.1 µM
- GI50 (SNB-75 CNS): 0.271 µM
- TGI (SNB-75 CNS): 20.3 µM
- GI50 (UACC-62 melanoma): 12.5 µM
- TGI (UACC-62 melanoma): 25.2 µM
- GI50 (UO-31 renal): 10.7 µM
- TGI (UO-31 renal): 28.7 µM
- GI50 (K-562 leukemia): 2.82 µM
- TGI (K-562 leukemia): > 100 µM
- GI50 (MDA-MB-231 breast): 11 µM
- TGI (MDA-MB-231 breast): 27.3 µM
- GI50 (HCT-15 colon): 4.6 µM
- TGI (HCT-15 colon): 20.1 µM
- GI50 (786-0 renal): 15.6 µM
- TGI (786-0 renal): 34.4 µM
- GI50 (NCI/ADR-RES ovarian): 18.9 µM
- TGI (NCI/ADR-RES ovarian): 55.2 µM
- GI50 (IGROV1 ovarian): 12.9 µM
- TGI (IGROV1 ovarian): 28 µM
- GI50 (BT-549 breast): 13.9 µM
- TGI (BT-549 breast): 31.4 µM
- GI50 (COLO 205 colon): 14.2 µM
- TGI (COLO 205 colon): 32.2 µM
- GI50 (SF-268 CNS): 12.8 µM
- TGI (SF-268 CNS): 63.4 µM
- GI50 (HT29 colon): 5.18 µM
- TGI (HT29 colon): 25 µM
- GI50 (NCI-H460 lung): 14.5 µM
- TGI (NCI-H460 lung): 29.2 µM
- GI50 (SNB-19 CNS): 23 µM
- TGI (SNB-19 CNS): 61.1 µM
- GI50 (CAKI-1 renal): 15.2 µM
- TGI (CAKI-1 renal): 28.4 µM
- GI50 (MOLT-4 leukemia): 6.02 µM
- TGI (MOLT-4 leukemia): 43.1 µM
- GI50 (HOP-62 NSCLC): 15.4 µM
- TGI (HOP-62 NSCLC): 32.8 µM
- GI50 (NCI-H522 lung): 13.3 µM
- TGI (NCI-H522 lung): 27.5 µM
